Measured values as given in US12679878B2, “CRF2 receptor agonists and their use in therapy” (SANOFI, priority 2020, dated 2026).
Where two headings read alike, the source gives them in different places. Starred links: 1 amine or outer side, 2 acyl side, 3 side chain; linkers in the order of their positions; H or OH if unused. Residues, ends and D or L forms follow the SMILES beside them. Groups on a side chain read outwards from the residue. *: point of attachment. C18 diacid = O=C(O)CCCCCCCCCCCCCCCCC(=O)*; γGlu = O=C(O)[C@H](CCC(=O)[*:2])N[*:1]; Palmitoyl = CCCCCCCCCCCCCCCC(=O)*; AEEA = NCCOCCOCC(=O)O

How the values were obtained:
[1] = biological target: T1, CRF1R receptor (Homo sapiens, UniProt P34998); assay: cAMP activity at anti-target CRF1R, CRF1R-overexpression CHO cell line (Example 9); assay type: cell-based
T1 construct: host or cells: CHO-K1 clone 2
T1 sequence (P34998 24-415): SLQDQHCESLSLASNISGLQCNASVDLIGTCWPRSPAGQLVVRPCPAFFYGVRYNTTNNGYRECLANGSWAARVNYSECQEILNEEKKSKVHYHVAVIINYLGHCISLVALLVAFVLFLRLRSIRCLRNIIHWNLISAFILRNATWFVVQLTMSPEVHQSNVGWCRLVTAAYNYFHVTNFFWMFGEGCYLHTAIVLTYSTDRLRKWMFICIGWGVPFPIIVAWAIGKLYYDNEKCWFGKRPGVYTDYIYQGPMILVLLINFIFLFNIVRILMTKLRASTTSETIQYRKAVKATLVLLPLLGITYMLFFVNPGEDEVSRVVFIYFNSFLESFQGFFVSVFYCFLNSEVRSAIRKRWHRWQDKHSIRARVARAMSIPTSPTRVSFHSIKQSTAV
How it was run: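 cAMP accumulation was read by HTRF after 30 min at room temperature of compound treatment. Cells were cryopreserved CHO cells overexpressing CRF1R, plated at 2000/well in IBMX (2 mM)-containing HBSS/HEPES buffer with 0 or 0.1% HSA. Activity was normalized to 1000 nM UCN2 as 100%.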

[2] = Chemical stability, purity loss by UPLC-UV after 28 days at 40° C. vs 5° C., pH 4.5 acetate buffer (Example 12); assay type: physicochemical; details: 28 days 40° C. vs 5° C.; pH 4.5, 20 mM acetate buffer; 300 μM
Procedure: The chemical stability of the compounds was assessed by storing the compounds under various conditions and then determining the loss of purity by UPLC-UV.
Prior to measuring the chemical stability of a batch of test compound, the purity of the compound was determined through UPLC/MS. For stability testing the target concentration was 300 μM pure compound. Therefore, solutions from solid samples were prepared in a pH 4.5, 20 mM acetate buffer system with a concentration of 300 μM compound based on the previously determined % purity:
At the starting point, UPLC-UV was performed by injection of 2 μl of the undiluted sample. Aliquots were then stored for 28 days at temperatures of 5 and 40° C. […] Then 2 μl samples of the undiluted supernatant were analysed with UPLC-UV. The chemical stability was calculated by the equation: [(purity after 28 days at 5° C.)−(purity after 28 days at 40° C.)]/(purity after 28 days at 5° C.)]×100%. The purity was calculated as: [(peak area compound)/(total peak area)]×100%.

[3] = biological target: T2, human CRF2α receptor (Homo sapiens, UniProt Q13324); assay: cAMP agonism at human CRF2 α receptor in TeloHEAC cells (Example 7); assay type: cell-based; details: cAMP HTRF, TeloHEAC cells stably expressing human CRF2 α
T2 construct: expressed in transfected cells; host or cells: TeloHEAC
T2 sequence (Q13324 1-411): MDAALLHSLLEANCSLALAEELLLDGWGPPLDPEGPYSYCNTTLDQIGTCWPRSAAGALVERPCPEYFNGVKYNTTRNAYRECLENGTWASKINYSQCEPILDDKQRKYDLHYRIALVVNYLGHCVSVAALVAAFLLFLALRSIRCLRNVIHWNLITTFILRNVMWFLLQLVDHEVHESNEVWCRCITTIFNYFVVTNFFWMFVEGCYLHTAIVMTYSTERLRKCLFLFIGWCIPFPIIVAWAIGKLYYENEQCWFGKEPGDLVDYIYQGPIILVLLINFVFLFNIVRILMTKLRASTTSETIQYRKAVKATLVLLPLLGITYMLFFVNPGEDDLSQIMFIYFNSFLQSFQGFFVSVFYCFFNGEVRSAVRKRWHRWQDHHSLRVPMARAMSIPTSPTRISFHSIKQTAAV
How it was run: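 Steps: thaw and wash cells; suspend in 1×HBSS, 20 mM HEPES, 0 or 0.1% HSA, 2 mM IBMX; add compound, 30 min RT; lyse with HTRF reagents, 1 h; read 665/620 nm. EC50 calculated, E% versus 1000 nM UCN2.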

[4] = Physical stability, Thioflavin T fibrillation assay (Example 14); assay type: physicochemical; details: 3 mg/ml, 37° C. shaking
How it was run: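 Compounds at 3 mg/ml final in buffer were stressed at 37° C by repeated cycles of 10 s shaking at 960 rpm and 50 s rest. ThT fluorescence was read every 20 minutes in eight replicates, with fluorescence increase and lag time indicating fibrillation tendency.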

[5] = Solubility in buffer systems by UPLC-UV (Example 13); assay type: physicochemical
How it was run: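 The supernatant was diluted 1:10 and quantified by UPLC-UV peak area against a reference standard curve, correcting for sequence-based extinction coefficients.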

[6] = system: rat CRF2R α receptor; assay: cAMP agonism at rat CRF2R α receptor in A7R5 rat aortic smooth muscle cells (Example 8); assay type: cell-based; details: cAMP HTRF, A7R5 rat aortic smooth muscle cell line, 0% HSA
How it was run: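 Thawed cryopreserved A7R5 cells in HBSS/20 mM HEPES (0 or 0.1% HSA) with 2 mM IBMX, 2000 cells/well, were exposed to compound for 30 min at room temperature. cAMP was read by HTRF (665/620 nm ratio) after 1 h with lysis reagents. Activity was normalised to 1000 nM urocortin 2 as 100%, and EC50 was taken as the concentration giving 50% of maximal activation.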

[7] = 0% HSA, read-out: EC50 [nM], 0% HSA
[8] = Buffer A: 100 mM acetate buffer, pH 4.5
[9] = Buffer B: 100 mM acetate buffer, pH 4.5, 2.7 mg/ml m-cresol

Emax ([1]; CRF1R-overexpression CHO cell line, read-out: Emax (%))	EC50 ([3]; 0.1% HSA, read-out: EC50 [nM], 0.1% HSA)	Increase in FI (fluorescence intensity) [4, 8]	Lag time [4, 8]	solubility at 1 h ([5]; pH 4.5, Solubility in Buffer B [mg/ml])	solubility at 1 h ([5]; pH 7.4, Solubility in Buffer C [mg/ml])	Compound	Relative purity loss [%] [2]	EC50 [3, 7]	Increase in FI (fluorescence intensity) [4, 9]	Lag time [4, 9]	Emax ([1]; CHO)	solubility at 1 h ([5]; Buffer B: 100 mM acetate buffer, pH 4.5, 2.7 mg/ml m-cresol, target 10 mg/ml, read-out: Solubility in Buffer B)	solubility at 1 h ([5]; Buffer C: 100 mM phosphate buffer, pH 7.4, target 10 mg/ml, read-out: Solubility in Buffer C)	EC50 [6]
47.2%	0.18 nM	No	>45 h	> 8500 µg/mL	> 8100 µg/mL	CCCCCCCCCCCCCCCC(=O)N[C@@H](CCC(=O)NCCCC[C@H](NC(=O)[C@H](CC(C)C)NC(=O)CNC(=O)[C@@H](NC(=O)[C@@H]1CCCN1C(=O)[C@@H](NC(=O)[C@H](CC(=O)O)NC(=O)[C@H](CC(C)C)NC(=O)[C@H](CO)NC(=O)[C@H](CC(C)C)NC(=O)[C@@H](NC(=O)[C@@H](N)[C@@H](C)CC)C(C)C)C(C)C)[C@@H](C)CC)C(=O)N[C@@H](CCC(N)=O)C(=O)N[C@@H](CCCCN)C(=O)N[C@@H](CC(C)C)C(=O)N[C@@H](CC(C)C)C(=O)N[C@@H](CCCCN)C(=O)N[C@@H](CCC(N)=O)C(=O)N[C@@H](CCC(N)=O)C(=O)N[C@@H](CCCNC(=N)N)C(=O)N[C@@H](CCC(N)=O)C(=O)N[C@@H](CCCNC(=N)N)C(=O)N[C@@H](CCCCN)C(=O)N[C@@H](CCC(=O)O)C(=O)N[C@@H](CCCNC(=N)N)C(=O)N[C@@H](CCC(N)=O)C(=O)N[C@@H](CCC(N)=O)C(=O)N[C@@H](C)C(=O)N[C@@H](CCC(=O)O)C(=O)N[C@@H](CCCCN)C(=O)N[C@@H](CC(N)=O)C(=O)N[C@@H](C)C(=O)N[C@@H](CCCNC(=N)N)C(=O)N[C@H](C(=O)N[C@@H](CC(C)C)C(=O)N[C@@H](C)C(=O)N[C@@H](CCCNC(=N)N)C(=O)N[C@H](C(N)=O)C(C)C)[C@@H](C)CC)C(=O)O [compound 6] (H-IVLSLDVPIGLK([γGlu-Palmitoyl])QKLLKQQRQRKERQQAEKNARILARV-NH2; N-terminus assumed)	1.9%	0.16 nM	No	>45 h	–	–	–	–
–	–	–	–	–	–	CC[C@H](C)[C@H](N)C(=O)N[C@H](C(=O)N[C@@H](CC(C)C)C(=O)N[C@@H](CO)C(=O)N[C@@H](CC(C)C)C(=O)N[C@@H](CC(=O)O)C(=O)N[C@H](C(=O)N1CCC[C@H]1C(=O)N[C@H](C(=O)N[C@@H](CCCCN)C(=O)N[C@@H](CC(C)C)C(=O)N[C@@H](CCCCNC(=O)COCCOCCNC(=O)COCCOCCNC(=O)CC[C@H](NC(=O)CCCCCCCCCCCCCCCCC(=O)O)C(=O)O)C(=O)N[C@@H](CCC(N)=O)C(=O)N[C@H](C(=O)N[C@@H](CC(C)C)C(=O)N[C@@H](CC(C)C)C(=O)N[C@@H](CCCCN)C(=O)N[C@@H](CCC(N)=O)C(=O)N[C@@H](CCC(=O)O)C(=O)N[C@@H](CCCNC(=N)N)C(=O)N[C@@H](CCC(N)=O)C(=O)N[C@@H](CCCCN)C(=O)N[C@@H](CCCCN)C(=O)N[C@@H](CCC(N)=O)C(=O)N[C@@H](CCCNC(=N)N)C(=O)N[C@@H](CCC(N)=O)C(=O)N[C@@H](CCCCN)C(=O)N[C@@H](C)C(=O)N[C@@H](CCC(=O)O)C(=O)N[C@H](C(=O)N[C@@H](CC(N)=O)C(=O)N[C@@H](CCCCN)C(=O)N[C@@H](CCC(N)=O)C(=O)N[C@H](C(=O)N[C@@H](CC(C)C)C(=O)N[C@@H](C)C(=O)N[C@@H](CCC(N)=O)C(=O)N[C@H](C(N)=O)C(C)C)[C@@H](C)CC)[C@@H](C)O)[C@@H](C)CC)[C@@H](C)CC)C(C)C)C(C)C [compound 77] (H-IVLSLDVPIKLK([AEEA-AEEA-γGlu-C18 diacid])QILLKQERQKKQRQKAETNKQILAQV-NH2)	3.60%	0.33 nM	Yes	23.0 to 29.7 h	1.56%	> 8000 µg/mL	> 9000 µg/mL	3.26 nM
